This passage reports IC50 results from patent publication US8420657B2 (Novartis AG, priority 2008, dated 2013).

In experiment [1] the test system is JAK1/JAK2-dependent nuclear translocation of STAT1-GFP in HT1080 fibrosarcoma cells. Briefly: STAT1 nuclear translocation assay (Cellomics), IFN-γ stimulated HT1080 STAT1-GFP cells. Format: cell-based. To be noted: Homo sapiens, HT-1080, STAT1 translocation pathway. In a few lines:
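HT1080 cells stably expressing STAT1-GFP, pre-treated 30 min with compound (10 μM–0.003 μM, 0.1% DMSO), then stimulated 2 h with 100 ng/ml IFN-γ, fixed and Hoechst-stained. Nuclear-cytoplasmic GFP differential imaged over ≥1000 cells/well, normalised to unstimulated and DMSO-stimulated wells for IC50.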

The next experiment addresses T1, GST-JAK2(808-1132) (Homo sapiens, UniProt O60674).
T1 construct: GST-JAK2(808-1132); purchased Invitrogen (Carlsbad, USA) #4288
Briefly: JAK2 kinase assay (Caliper mobility shift, LabChip 3000). The class given is biochemical. Put shortly: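 Recombinant GST-JAK2(808-1132) kinase domain with FITC-labelled JAK3tide peptide substrate and ATP; 60 min at 30 °C, EDTA stop. Substrate/product ratio read by microfluidic mobility shift; compounds at 8 final concentrations, 10 to 0.003 μM.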

Molecules are shown by their SMILES. A value given as a limit tells only on which side of the number the result lay.

T1 sequence (O60674 808-1132): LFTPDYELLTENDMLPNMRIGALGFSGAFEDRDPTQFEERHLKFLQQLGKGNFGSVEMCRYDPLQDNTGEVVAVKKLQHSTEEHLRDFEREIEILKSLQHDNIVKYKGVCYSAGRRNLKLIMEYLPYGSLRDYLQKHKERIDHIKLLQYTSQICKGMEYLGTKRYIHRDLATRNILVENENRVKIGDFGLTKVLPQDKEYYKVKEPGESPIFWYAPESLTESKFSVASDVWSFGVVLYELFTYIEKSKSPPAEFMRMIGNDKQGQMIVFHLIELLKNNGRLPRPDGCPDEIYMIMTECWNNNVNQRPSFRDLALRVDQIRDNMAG

In the case of `CC(C)Oc1ccc(Nc2ncc3ccn(-c4ccc(C(=O)N5CCOCC5)c(Cl)c4)c3n2)cc1` [Example 99, {2-Chloro-4-[2-(4-isopropoxy-phenylamino)-pyrrolo[2,3-d]pyrimidin-7-yl]-phenyl}-morpholin-4-yl-methanone], the IC50 came out at 555 nM in experiment [1] and 3.9 nM on GST-JAK2(808-1132).
For `Cc1cc(-n2ccc3cnc(Nc4ccc(OC(C)C)cc4)nc32)ccc1C(=O)N1CCOCC1` [Example 100, {4-[2-(4-Isopropoxy-phenylamino)-pyrrolo[2,3-d]pyrimidin-7-yl]-2-methyl-phenyl}-morpholin-4-yl-methanone] the same measures were 510 nM and less than 3 nM.
For `CC(C)Oc1ccc(Nc2ncc3ccn(-c4ccc(CC(=O)N5CCN(C)CC5)cc4)c3n2)cc1` [Example 101, 2-{4-[2-(4-Isopropoxy-phenylamino)-pyrrolo[2,3-d]pyrimidin-7-yl]-phenyl}-1-(4-methyl-piperazin-1-yl)-ethanone], in that order: 180 nM and less than 3 nM.
Consider `CC(C)Oc1ccc(Nc2ncc3ccn(-c4ccc(CC(=O)N5CCOCC5)cc4)c3n2)cc1` [Example 102, 2-{4-[2-(4-Isopropoxy-phenylamino)-pyrrolo[2,3-d]pyrimidin-7-yl]-phenyl}-1-morpholin-4-yl-ethanone], for which the IC50 in experiment [1] is 275 nM; on GST-JAK2(808-1132), less than 3 nM.
For `CC(C)Oc1ccc(Nc2ncc3ccn(-c4ccc(C5(C(=O)N6CCN(C)CC6)CC5)cc4)c3n2)cc1` [Example 103, (1-{4-[2-(4-Isopropoxy-phenylamino)-pyrrolo[2,3-d]pyrimidin-7-yl]-phenyl}-cyclopropyl)-(4-methyl-piperazin-1-yl)-methanone], in that order: 220 nM and less than 3 nM.
Take `CC(C)Oc1ccc(Nc2ncc3ccn(-c4ccc(N5CCNCC5=O)cc4)c3n2)cc1` [Example 104, 1-{4-[2-(4-Isopropoxy-phenylamino)-pyrrolo[2,3-d]pyrimidin-7-yl]-phenyl}-piperazin-2-one]: the IC50 in experiment [1] was determined as 865 nM; on GST-JAK2(808-1132), 3.6 nM.
Take `CC(C)Oc1ccc(Nc2ncc3ccn(-c4ccc(N5CCCC5=O)cc4)c3n2)cc1` [Example 105, 1-{4-[2-(4-Isopropoxy-phenylamino)-pyrrolo[2,3-d]pyrimidin-7-yl]-phenyl}-pyrrolidin-2-one]: the figures for the IC50 (in experiment [1]; on GST-JAK2(808-1132)) were 5840 nM and 11.5 nM, respectively.
For the molecule `CCN1CCN(Cc2ccc(-n3ccc4cnc(Nc5ccc(OC(C)C)cc5)nc43)cc2F)CC1` [Example 106, {7-[4-(4-Ethyl-piperazin-1-ylmethyl)-3-fluoro-phenyl]-7H-pyrrolo[2,3-d]pyrimidin-2-yl}-(4-isopropoxy-phenyl)-amine], the IC50 was 8380 nM in experiment [1] and 33 nM at GST-JAK2(808-1132).
`CC(C)Oc1ccc(Nc2ncc3ccn(-c4ccc(CN5CCCC5)cc4)c3n2)cc1` [Example 107, (4-Isopropoxy-phenyl)-[7-(4-pyrrolidin-1-ylmethyl-phenyl)-7H-pyrrolo[2,3-d]pyrimidin-2-yl]-amine]: the IC50 in experiment [1] was determined as 1840 nM; on GST-JAK2(808-1132), 8.1 nM.
For `CC(C)Oc1ccc(Nc2ncc3ccn(-c4ccc(CN5CCCNCC5)c(F)c4)c3n2)cc1` [Example 108], in that order: 1680 nM and 6.6 nM.
For `CC(C)Oc1ccc(Nc2ncc3ccn(-c4ccc(CN5CCOCC5)cc4)c3n2)cc1` [Example 109, (4-Isopropoxy-phenyl)-[7-(4-morpholin-4-ylmethyl-phenyl)-7H-pyrrolo[2,3-d]pyrimidin-2-yl]-amine], in that order: 310 nM and 8.3 nM.
Consider `CC(C)Oc1ccc(Nc2ncc3ccn(-c4ccc(CN5CCOCC5)c(Cl)c4)c3n2)cc1` [Example 110, [7-(3-Chloro-4-morpholin-4-yl methyl-phenyl)-7H-pyrrolo[2,3-d]pyrimidin-2-yl]-(4-isopropoxy-phenyl)-amine], for which the concentration for half-maximal inhibition (IC50) is 1110 nM in experiment [1] and 13.5 nM on GST-JAK2(808-1132).
For `Cc1cc(-n2ccc3cnc(Nc4ccc(OC(C)C)cc4)nc32)ccc1CN1CCOCC1` [Example 111, (4-Isopropoxy-phenyl)-[7-(3-methyl-4-morpholin-4-ylmethyl-phenyl)-7H-pyrrolo[2,3-d]pyrimidin-2-yl]-amine] the same measures were 846 nM and 14.5 nM.
As to `CC(C)Oc1ccc(Nc2ncc3ccn(-c4ccc(CN5CCS(=O)(=O)CC5)c(F)c4)c3n2)cc1` [Example 112, {7-[4-(1,1-Dioxido-thiomorpholin-4-ylmethyl)-3-fluoro-phenyl]-7H-pyrrolo[2,3-d]pyrimidin-2-yl}-(4-isopropoxy-phenyl)-amine], the values for the IC50 (in experiment [1]; on GST-JAK2(808-1132)) were 73 nM and less than 3 nM, respectively.
Regarding `CC(C)Oc1ccc(Nc2ncc3ccn(-c4ccc(CN5CCS(=O)(=O)CC5)c(Cl)c4)c3n2)cc1` [Example 113, {7-[3-Chloro-4-(1,1-dioxido-thiomorpholin-4-ylmethyl)-phenyl]-7H-pyrrolo[2,3-d]pyrimidin-2-yl}-(4-isopropoxy-phenyl)-amine], the values for the IC50 (in experiment [1]; at GST-JAK2(808-1132)) were 108 nM and 4.2 nM, respectively.
For `CC(C)Oc1ccc(Nc2ncc3ccn(-c4ccc(C(C)O)cc4)c3n2)cc1` (centres unmarked) [Example 114, 1-{4-[2-(4-Isopropoxy-phenylamino)-pyrrolo[2,3-d]pyrimidin-7-yl]-phenyl}-ethanol], in that order: 202 nM and 5.9 nM.
For the molecule `CC(C)Oc1ccc(Nc2ncc3ccn(-c4ccc(CCN5CCOCC5)cc4)c3n2)cc1` [Example 115, (4-Isopropoxy-phenyl)-{7-[4-(2-morpholin-4-yl-ethyl)-phenyl]-7H-pyrrolo[2,3-d]pyrimidin-2-yl}-amine], the IC50 stood at 714 nM in experiment [1] and 16 nM on GST-JAK2(808-1132).
In the case of `Cc1ccc(Nc2ncc3ccn(-c4cc(F)c(C(=O)N5CCOCC5)c(F)c4)c3n2)cc1Cl` [Example 116, {4-[2-(3-Chloro-4-methyl-phenylamino)-pyrrolo[2,3-d]pyrimidin-7-yl]-2,6-difluoro-phenyl}-morpholin-4-yl-methanone], the values for the IC50 (in experiment [1]; at GST-JAK2(808-1132)) were 563 nM and 12.5 nM, respectively.
For `Cc1ccc(Nc2ncc3ccn(-c4ccc(C5(C(=O)N6CCN(C)CC6)CC5)cc4)c3n2)cc1Cl` [Example 117, (1-{4-[2-(3-Chloro-4-methyl-phenylamino)-pyrrolo[2,3-d]pyrimidin-7-yl]-phenyl}-cyclopropyl)-(4-methyl-piperazin-1-yl)-methanone], in that order: 384 nM and 9.4 nM.
As for `Cc1ccc(Nc2ncc3ccn(-c4ccc(CN5CCOCC5)c(F)c4)c3n2)cc1Cl` [Example 118, (3-Chloro-4-methyl-phenyl)-[7-(3-fluoro-4-morpholin-4-ylmethyl-phenyl)-7H-pyrrolo[2,3-d]pyrimidin-2-yl]-amine], the figures for the IC50 (in experiment [1]; on GST-JAK2(808-1132)) were 1520 nM and 75 nM, respectively.
With `Cc1ccc(Nc2ncc3ccn(-c4ccc(CN5CCOCC5)cc4)c3n2)cc1Cl` [Example 119, (3-Chloro-4-methyl-phenyl)-[7-(4-morpholin-4-ylmethyl-phenyl)-7H-pyrrolo[2,3-d]pyrimidin-2-yl]-amine], the IC50 in experiment [1] was 1760 nM; on GST-JAK2(808-1132), 88 nM.
Take `CCN1CCN(Cc2ccc(-n3ccc4cnc(Nc5ccc(C)c(Cl)c5)nc43)cc2F)CC1` [Example 120, (3-Chloro-4-methyl-phenyl)-{7-[4-(4-ethyl-piperazin-1-ylmethyl)-3-fluoro-phenyl]-7H-pyrrolo[2,3-d]pyrimidin-2-yl}-amine]: the figures for the IC50 (in experiment [1]; on GST-JAK2(808-1132)) were 7850 nM and 155 nM, respectively.
`Cc1ccc(Nc2ncc3ccn(-c4ccc(CN5CCS(=O)(=O)CC5)c(F)c4)c3n2)cc1Cl` [Example 121, (3-Chloro-4-methyl-phenyl)-{7-[4-(1,1-dioxido-thiomorpholin-4-ylmethyl)-3-fluoro-phenyl]-7H-pyrrolo[2,3-d]pyrimidin-2-yl}-amine]: the IC50 in experiment [1] is 152 nM; at GST-JAK2(808-1132), 15.5 nM.
For `Cc1cc(Nc2ncc3ccn(-c4ccc(C5(C(=O)N6CCN(C)CC6)CC5)cc4)c3n2)ccc1F` [Example 122, (1-{4-[2-(4-Fluoro-3-methyl-phenylamino)-pyrrolo[2,3-d]pyrimidin-7-yl]-phenyl}-cyclopropyl)-(4-methyl-piperazin-1-yl)-methanone] the same measures were 164 nM and 3.3 nM.
Consider `Cc1cc(Nc2ncc3ccn(-c4ccc(CN5CCOCC5)cc4)c3n2)ccc1F` [Example 123, (4-Fluoro-3-methyl-phenyl)-[7-(4-morpholin-4-ylmethyl-phenyl)-7H-pyrrolo[2,3-d]pyrimidin-2-yl]-amine], for which the values for the 50% inhibitory concentration (IC50) (in experiment [1]; at GST-JAK2(808-1132)) were 802 nM and 28 nM, respectively.
For `CCN1CCN(Cc2ccc(-n3ccc4cnc(Nc5ccc(F)c(C)c5)nc43)cc2F)CC1` [Example 124, {7-[4-(4-Ethyl-piperazin-1-ylmethyl)-3-fluoro-phenyl]-7H-pyrrolo[2,3-d]pyrimidin-2-yl}-(4-fluoro-3-methyl-phenyl)-amine] the same measures were 2160 nM and 85 nM.
For `Cc1cc(Nc2ncc3ccn(-c4ccc(CN5CCS(=O)(=O)CC5)c(F)c4)c3n2)ccc1F` [Example 125, {7-[4-(1,1-Dioxido-thiomorpholin-4-ylmethyl)-3-fluoro-phenyl]-7H-pyrrolo[2,3-d]pyrimidin-2-yl}-(4-fluoro-3-methyl-phenyl)-amine], in that order: 120 nM and less than 3 nM.
Take `CC(C)Oc1ccc(Nc2ncc3ccn(-c4cc(F)c(CN5CCOCC5)c(F)c4)c3n2)cc1` [Example 126, [7-(3,5-Difluoro-4-morpholin-4-ylmethyl-phenyl)-7H-pyrrolo[2,3-d]pyrimidin-2-yl]-(4-isopropoxy-phenyl)-amine]: the IC50 in experiment [1] turned out to be 1620 nM; at GST-JAK2(808-1132) it was 11 nM.

What is called IC50 is the midpoint of a concentration-inhibition curve.
